What was measured:
mTOR = target: T1, mTOR (Homo sapiens, UniProt P42345+P62942); assay: p70 S6K phosphorylation immunoblot; assay type: cell-based; settings: targeting concentrations
T1 construct: endogenous in cells

[1] = test system: HS578T subcutaneous xenografts; assay: HS578T subcutaneous xenografts, AdSyn-CO335 study; settings: 28 days, 8 mg/kg rapamycin alone, no virus infection
Procedure: Oncolytic activity of AdSyn-CO335 was tested in vitro and in vivo. HS578T cells were infected with a serial dilution of AdSyn-CO335. At 24, 48, 72 and 96 hours after infection, fresh rapamycin or AP21967 was added to 50 nM. The metabolic activity was quantified by WST-1 assay, and was normalized to uninfected cells with a matching drug treatment. […] To evaluate AdSyn-CO335 in vivo, HS578T subcutaneous xenografts were established in mice. […]
Two perpendicular tumor diameters (l and w) were measured weekly to follow tumor progression. Tumor volumes were calculated by use of the modified ellipsoid formula where vol=½ (l*w^2) (Euhus et al., J Surg Oncol 31(4):229-2341986; Tomayko et al., Cancer Chemother Pharmacol 24(3):148-154, 1989).
On days 0, 3, and 6, mice were injected intratumorally with 2×10^8 PFU of adenovirus diluted in 50 μl PBS. […] Body weight was monitored for toxicity, and tumor sizes were measured while blinded to treatment groups. […]

Row | SMILES | phosphorylation of p70 S6K (mTOR inhibition) (mTOR) | mean tumor volume [1]
1 | CO[C@H]1[C@@H](O)[C@H](C)C[C@H](C)/C=C/C=C/C=C(\C)[C@@H](c2c[nH]c3c(C)cccc23)C[C@@H]2CC[C@@H](C)[C@@](O)(O2)C(=O)C(=O)N2CCCC[C@H]2C(=O)O[C@H]([C@H](C)C[C@@H]2CC[C@@H](O)[C@H](OC)C2)C[C@H](O)[C@H](C)/C=C(\C)[C@H]1O [AP21967] | does not inhibit mTOR at targeting concentrations | –
2 | CO[C@H]1C[C@@H]2CC[C@@H](C)[C@@](O)(O2)C(=O)C(=O)N2CCCC[C@H]2C(=O)O[C@H]([C@H](C)C[C@@H]2CC[C@@H](O)[C@H](OC)C2)CC(=O)[C@H](C)/C=C(\C)[C@@H](O)[C@@H](OC)C(=O)[C@H](C)C[C@H](C)/C=C/C=C/C=C/1C [rapamycin, Rapamycin] | – | 229±49 mm^3
